# Source: ChEMBL document CHEMBL1255390, “Clinical pharmacodynamics of cefepime in patients infected with Pseudomonas aeruginosa” (2010)
# Legend:
# Type in all cases: functional
# [1] = fT>MIC in Pseudomonas aeruginosa infected patient at 2 g,iv administered as 3 hrs infusion every 8 hrs
# [2] = fT>MIC in Pseudomonas aeruginosa infected patient
# Pseudomonas aeruginosa = assay: Antimicrobial activity against Pseudomonas aeruginosa isolated from infected patient by Etest method
compound,measurement,setting,value
CO/N=C(\C(=O)N[C@@H]1C(=O)N2C(C(=O)[O-])=C(C[N+]3(C)CCCC3)CS[C@H]12)c1csc(N)n1 [CEFEPIME],fT>MIC,[1],>60%
same,fT>MIC,[2],85.2%
same,MIC50,Pseudomonas aeruginosa,3 µg/mL
same,MIC90,Pseudomonas aeruginosa,16 µg/mL
